In patent publication US20230121313A1 (priority 2019, published 2023):
Several values for one entry are separate records, joined by “and”; a condition that tells them apart may be missing. Identical values can stand only once. Entries after “also recorded” stand apart in the source; their conditions may differ. Counter-ions that a name gives are not always drawn. Marks after values point to notes of the source that are not given here.

Columns and labels:
[1] = system: female Sprague-Dawley rats; test: Single dose neurotoxicity study, intranasal esketamine HCl (clinical observations, brain histopathology, toxicokinetics)
From the text: (§1) For these studies, female specific pathogen free (SPF) Sprague-Dawley rats were used, which were approximately 12 to 14 weeks at start of dosing and weighed between 227 to 293 grams in the single dose study and between 235 to 296 grams in the 14-day repeated dose study. The rats were supplied by Charles River (Sulzfeld, Germany). They were group housed in polysulphone cages with floor area of 3000 cm^2 and Corn Cob (size 12, Eurocob, France) was provided as bedding material. Environmental enrichment existed of a rodent retreat (Bio-Serv, US) and aspen wood blocks (Datesand, UK). […] The animals were fed ad libitum with irradiated R/M-H pelleted maintenance diet from Ssniff (Germany). Hydrogel™ (supplied by Bio-services, Uden, the Netherlands) was provided to the MK-801 dosed rats in the single dose study.
Esketamine HCl was instilled intranasally at doses of 0 (vehicle), 36, 54 or 72 mg (expressed as esketamine base) to female rats on a single day. The dose levels were obtained by 2, 3 or 4 subsequent intranasal instillations, respectively, into both nostrils at a volume of 50 μL per nostril. At each instillation, the second nostril was dosed immediately after the first nostril. The interval between subsequent instillations into both nostrils was 5 minutes.
The vehicle control group received 4 subsequent intranasal instillations of the vehicle into both nostrils (50 μL per nostril) with 5-minute intervals.
The injection volume was 5 mL/kg.
The vehicle- and the 36 and 54 mg-dosed groups consisted of 24 animals per group, while the 72 mg-dosed and positive control groups involved 30 animals per group. Four satellite animals were added to the esketamine HCl-dosed groups of main study animals for toxicokinetic (TK) purposes. In these animals the plasma exposure to esketamine was measured on the day of dosing at various time points up to and including 24 hours after the first instillation.
Prior to the perfusion, rats were anesthetized with isoflurane. After injection of 0.1 ml heparin, the blood of the rat was flushed out with a physiological saline solution by intraarterial insertion of a needle in the abdominal aorta. Thereafter the rat was perfused with glutaraldehyde 3% in potassium phosphate 0.09M and 1.4% sucrose. Due to logistic constraints at maximum 30 animals could undergo the whole-body perfusion procedure on a given day. Therefore, a staggered start of treatment was applied to all 5 groups of main study animals. Consequently, subgroups of 4 main study animals of the vehicle- and 36 and 54 mg-dosed groups, and 5 main study animals of the 72 mg-dosed and positive control groups, were dosed on 6 consecutive days, respectively.
The vehicle control, positive control, and esketamine HCl-dosed animals were sacrificed at either 48 hours (i.e., the first 12 or 15 rats per group) or 96 hours after the dose administration time (i.e., the last 12 or 15 rats per group). The brain tissue of the vehicle control-, positive control- and esketamine HCl-treated rats were processed at the same time and handled in the same way in batches of 4 or 5 animals per group.
(§2) Furthermore, clinical observations were recorded for the esketamine HCl-dosed rats on the day of dosing at 0 till 5 minutes, 15 and 30 minutes, and at 1, 2, 4, 6 hours post-dose, at the end of the working day and at 24 hours after the last instillation in the single dose study and on the first day of dosing, after one week and towards the end of the dosing period in the repeated dose study. Body weight and body weight gain were measured daily. Food consumption was measured weekly in the repeated dose study.
(§3) On the day of terminal kill, a complete physical examination was performed on the rats in fasted condition and body weight was recorded. The surviving animals were anaesthetized by inhalation of an isoflurane (IsoFlo® Zoetis, Belgium)/oxygen mixture and killed by exsanguination via the carotid artery.

[2] = system: female Sprague-Dawley rats; test: 14-day repeated dose neurotoxicity study, intranasal esketamine HCl (clinical observations, brain histopathology, toxicokinetics); settings: for Abnormal respiration, incidence / Ataxia, incidence / Chromodacryorrhea, incidence / Decreased general activity, incidence / Decubitus, incidence / Increased general activity, incidence / Salivation (out of normal), incidence / audible respiration, incidence / bradypnoea, incidence: 14 days
From the text: as §1
Esketamine HCl was administered into each nostril of female rats at a volume of 50 μl per nostril either once, twice or thrice daily by intranasal instillation for 14 consecutive days at doses of 0 (vehicle), 18, 36 or 54 mg/day. At each instillation, the second nostril was dosed immediately after the first nostril. The interval between subsequent instillations into both nostrils was 5 minutes when dosed 2 or 3 times per day.
The vehicle control group received 3 subsequent intranasal instillations of the vehicle into both nostrils (50 μL per nostril) with 5-minute intervals for 14 consecutive days.
The positive control group received a single subcutaneous injection of (+)MK-801 at 48 hours prior to the necropsy of the vehicle control and esketamine HCl-treated animals.
Each group of main study animals consisted of 12 female rats. Four satellite animals were added to the esketamine HCl-dosed groups of main study animals for TK purposes. The plasma exposure to esketamine was measured in these animals on the first and the last day of dosing at various time points up to and including 24 hours after the first instillation.
Due to logistic constraints associated with the whole body perfusion procedure of the animals at necropsy, a staggered start was applied to the study. Consequently, all 5 groups of main study animals were divided into three subgroups of 4 animals each. For each of these subgroups treatment started on a different day. The perfusion procedure is the is the same as described for the single dose study.
All vehicle- and esketamine HCl-treated animals were sacrificed at 48 hours after the last instillation. […] The brain tissue of the vehicle control-, positive control- and esketamine HCl-treated rats were processed at the same time and handled in the same way in batches of 4 animals per group.
as §2
as §3, with “artery. […] All terminally killed rats or those killed pre-terminally were perfused with 4% paraformaldehyde in the single dose study and with glutaraldehyde 3% in potassium phosphate buffer 0.09 M with 1.4% sucrose in the repeated dose study.” for “artery.”
Brain tissue was sampled and processed routinely. The trimmed and embedded tissue was sectioned and stained with hematoxylin-eosin (HE).

[3] = single dose neurotoxicity study, 72 mg
[4] = 14-day neurotoxicity study, 54 mg/day

Structure (SMILES): CN[C@]1(c2ccccc2Cl)CCCCC1=O [esketamine, (S)-2-(2-chlorophenyl)-2-(methylamino)cyclohexanone]
- AUC-based safety margin compared with the maximum 84 mg clinical dose [1, 3]: ~86 fold
- Cmax-based safety margin compared with the maximum 84 mg clinical dose [1, 3]: approximately 60 fold
- AUC-based safety margin compared with the maximum 84 mg clinical dose [2, 4]: ~11 fold
- Cmax-based safety margin compared with the maximum 84 mg clinical dose [2, 4]: approximately 17 fold

Structure (SMILES): CN[C@]1(c2ccccc2Cl)CCCCC1=O [esketamine HCl, (S)-2-(2-chlorophenyl)-2-(methylamino)cyclohexanone hydrochloride]
- Duration of severely decreased activity with decubitus, bradypnea, ptosis, catalepsy (anesthesia) after last instillation ([1]; 36 mg): 15 to 30 min
- Duration of ataxia (with increased activity) after recovery from decreased activity ([1]; 54 mg, hydrochloride): 1.5 to 3 h and 1 to 3 h
- Duration of ataxia (with increased activity) after recovery from decreased activity ([1]; 72 mg): up to 3 hours or longer
- Abnormal respiration, incidence ([1]; single dose 36 mg intranasal): 22/24***
- Ataxia, incidence ([1]; single dose 36 mg intranasal): 24/24***
- Catalepsy, incidence ([1]; single dose 36 mg intranasal): 20/24***
- Chromodacryorrhea, incidence ([1]; single dose 36 mg intranasal): 0/24
- Decreased general activity, incidence ([1]; single dose 36 mg intranasal): 23/24***
- Decubitus, incidence ([1]; single dose 36 mg intranasal): 23/24***
- Increased general activity, incidence ([1]; single dose 36 mg intranasal): 24/24***
- Narrowed palpebral fissure, incidence ([1]; single dose 36 mg intranasal): 7/24**
- Piloerection, incidence ([1]; single dose 36 mg intranasal): 0/24
- Salivation (out of normal), incidence ([1]; single dose 36 mg intranasal): 23/24***
- audible respiration, incidence ([1]; single dose 36 mg intranasal): 10/24***
- bradypnoea, incidence ([1]; single dose 36 mg intranasal): 22/24***
- Abnormal respiration, incidence ([1]; single dose 54 mg intranasal): 22/24***
- Ataxia, incidence ([1]; single dose 54 mg intranasal): 24/24***
- Catalepsy, incidence ([1]; single dose 54 mg intranasal): 23/24***
- Chromodacryorrhea, incidence ([1]; single dose 54 mg intranasal): 0/24
- Decreased general activity, incidence ([1]; single dose 54 mg intranasal): 23/24***
- Decubitus, incidence ([1]; single dose 54 mg intranasal): 23/24***
- Increased general activity, incidence ([1]; single dose 54 mg intranasal): 24/24***
- Narrowed palpebral fissure, incidence ([1]; single dose 54 mg intranasal): 10/24***
- Piloerection, incidence ([1]; single dose 54 mg intranasal): 0/24
- Salivation (out of normal), incidence ([1]; single dose 54 mg intranasal): 24/24***
- audible respiration, incidence ([1]; single dose 54 mg intranasal): 3/24
- bradypnoea, incidence ([1]; single dose 54 mg intranasal): 21/24***
- Abnormal respiration, incidence ([1]; single dose 72 mg intranasal): 30/30***
- Catalepsy, incidence ([1]; single dose 72 mg intranasal): 30/30***
- Chromodacryorrhea, incidence ([1]; single dose 72 mg intranasal): 0/30
- Decreased general activity, incidence ([1]; single dose 72 mg intranasal): 30/30***
- Decubitus, incidence ([1]; single dose 72 mg intranasal): 30/30***
- Increased general activity, incidence ([1]; single dose 72 mg intranasal): 29/30***
- Narrowed palpebral fissure, incidence ([1]; single dose 72 mg intranasal): 22/30***
- Piloerection, incidence ([1]; single dose 72 mg intranasal): 0/30
- Salivation (out of normal), incidence ([1]; single dose 72 mg intranasal): 29/30***
- audible respiration, incidence ([1]; single dose 72 mg intranasal): 2/30
- bradypnoea, incidence ([1]; single dose 72 mg intranasal): 30/30***
- Brain histopathology (neuronal necrosis / Olney lesions in PCG/RSC) ([1]; single dose study, esketamine HCl intranasal up to 72 mg, (+)MK-801 maleate 1 mg/kg sc, 48 and 96 h post-dose, hydrochloride): no morphological evidence of neuronal degeneration; also recorded: histopathological lesions were absent; also recorded: No signs of neuronal necrosis were found; also recorded: no neuropathological lesions were observed
- Mortality ([1]; single intranasal dose 72 mg, within 30 minutes after 4 instillations): two main study animals and two satellite TK animals died
- Mortality ([1]; single intranasal dose up to 54 mg): No test article related mortality
- Abnormal respiration, incidence ([2]; 18 mg/day intranasal): 2/12
- Ataxia, incidence ([2]; 18 mg/day intranasal): 12/12***
- Chromodacryorrhea, incidence ([2]; 18 mg/day intranasal): 0/12
- Decreased general activity, incidence ([2]; 18 mg/day intranasal): 5/12
- Decubitus, incidence ([2]; 18 mg/day intranasal): 0/12
- Increased general activity, incidence ([2]; 18 mg/day intranasal): 12/12***
- Salivation (out of normal), incidence ([2]; 18 mg/day intranasal): 12/12***
- audible respiration, incidence ([2]; 18 mg/day intranasal): 2/12
- bradypnoea, incidence ([2]; 18 mg/day intranasal): 0/12
- Abnormal respiration, incidence ([2]; 36 mg/day intranasal): 11/12***
- Ataxia, incidence ([2]; 36 mg/day intranasal): 12/12***
- Chromodacryorrhea, incidence ([2]; 36 mg/day intranasal): 0/12
- Decreased general activity, incidence ([2]; 36 mg/day intranasal): 12/12***
- Decubitus, incidence ([2]; 36 mg/day intranasal): 2/12
- Increased general activity, incidence ([2]; 36 mg/day intranasal): 12/12***
- Salivation (out of normal), incidence ([2]; 36 mg/day intranasal): 12/12***
- audible respiration, incidence ([2]; 36 mg/day intranasal): 6/12**
- bradypnoea, incidence ([2]; 36 mg/day intranasal): 11/12***
- Abnormal respiration, incidence ([2]; 54 mg/day intranasal): 12/12***
- Ataxia, incidence ([2]; 54 mg/day intranasal): 12/12***
- Chromodacryorrhea, incidence ([2]; 54 mg/day intranasal): 0/12
- Decreased general activity, incidence ([2]; 54 mg/day intranasal): 12/12***
- Decubitus, incidence ([2]; 54 mg/day intranasal): 8/12***
- Increased general activity, incidence ([2]; 54 mg/day intranasal): 12/12***
- Salivation (out of normal), incidence ([2]; 54 mg/day intranasal): 12/12***
- audible respiration, incidence ([2]; 54 mg/day intranasal): 6/12**
- bradypnoea, incidence ([2]; 54 mg/day intranasal): 12/12***
- Maximum tolerated dose (MTD) upon repeated intranasal administration ([2]; 14-day dose-range finding study (internal study)): 54 mg/day
- Brain histopathology (neuronal necrosis / Olney lesions in PCG/RSC) ([2]; 14-day study, esketamine HCl intranasal up to 54 mg/day, (+)MK-801 maleate single 1 mg/kg sc, 48 h after last dose, hydrochloride, 1 mg/kg): absence of neuronal necrosis; also recorded: no histopathological lesions were noted; also recorded: did not; also recorded: No histopathological lesions were found
- Mortality ([2]; up to 54 mg/day for 14 days): No test article related mortality occurred
